Measured values reported in ChEMBL document CHEMBL1201862, “PubChem BioAssay data set” (2004).
The source made the active and inactive calls. Cut-off read from the data, not from the text of the source, for most assays here: actives have a measured EC50 and inactives only a lower limit.

Tests used:
BJ [1] = assay: cells; assay type: functional, cell-based; conditions: Homo sapiens
[2] = DRD fibroblast viability loss – cell-based, non-viral oncogenic, luminescence, dose response (AID 1934); assay type: functional; conditions: Homo sapiens
BJ [3] = assay: BJ-TERT fibroblast viability loss – cell-based, RAS-independent, luminescence, dose response (AID 1933); assay type: functional; conditions: Homo sapiens
BJ [4] = assay: BJ-TERT-LT-ST fibroblast viability loss – cell-based, RAS-independent, luminescence, dose response (AID 1935); assay type: functional; conditions: Homo sapiens;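 note: BJ fibroblasts immortalized with TERT plus LT and ST oncogenes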
[5] = molecular target: T1, Ubiquitin-conjugating enzyme E2 N (Homo sapiens, UniProt P61088); assay type: functional;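 note: Dose-response confirmation in a TR-FRET assay detecting UBC13-driven polyubiquitin chain formation, inhibition measured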
T1 sequence (P61088 whole entry): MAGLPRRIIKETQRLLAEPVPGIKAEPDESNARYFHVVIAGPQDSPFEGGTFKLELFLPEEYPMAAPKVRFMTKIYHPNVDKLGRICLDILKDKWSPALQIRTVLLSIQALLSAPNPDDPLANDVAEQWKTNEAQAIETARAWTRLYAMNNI

[6] = molecular target: T2, Heat shock factor protein 1 (Mus musculus, UniProt P38532); assay: enhancement of HSF1-driven luciferase signal – cell-based, NIH3T3, luminescence, dose retest, confirmation (AID 435004); assay type: functional;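 note: stress induced by proteasome inhibitor MG132 added 30 min after compound; luciferase reporter driven by HSF1 response element in NIH3T3 cells; actives raise luminescence as potentiators of the MG132 stress response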
T2 sequence (P38532 whole entry): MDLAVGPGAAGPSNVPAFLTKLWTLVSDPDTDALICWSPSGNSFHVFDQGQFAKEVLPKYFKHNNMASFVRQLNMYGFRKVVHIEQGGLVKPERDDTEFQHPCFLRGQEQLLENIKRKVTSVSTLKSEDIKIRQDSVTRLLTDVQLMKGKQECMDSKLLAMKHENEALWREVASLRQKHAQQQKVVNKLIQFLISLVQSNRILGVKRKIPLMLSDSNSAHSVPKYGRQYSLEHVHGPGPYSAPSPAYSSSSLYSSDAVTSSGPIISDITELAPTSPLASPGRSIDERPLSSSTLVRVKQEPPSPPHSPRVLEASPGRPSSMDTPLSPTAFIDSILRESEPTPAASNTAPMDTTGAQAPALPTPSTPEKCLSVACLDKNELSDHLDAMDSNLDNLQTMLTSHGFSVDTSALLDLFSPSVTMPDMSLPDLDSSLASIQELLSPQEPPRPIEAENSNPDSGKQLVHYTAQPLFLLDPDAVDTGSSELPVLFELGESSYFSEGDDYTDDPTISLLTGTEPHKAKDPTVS

[7] = molecular target: FAD-linked sulfhydryl oxidase ALR (Homo sapiens, UniProt P55789); assay: ALR-catalysed DTT oxidation blockers – biochemical, H2O2 detection, luminescence, cherry-pick, dose response (AID 493248)
[8] = luciferase reporter signal suppression in cells – H4 neuroglioma cells, luminescence, dose response (AID 1990); assay type: functional, cell-based
[9] = alpha-synuclein stem-loop luciferase translation blockers – H4 neuroglioma cells, luminescence, confirmation (AID 1988); assay type: functional, cell-based
[10] = Luminescence Cell-Based Dose Response HTS to Identify Inhibitors of 5'UTR Stem-Loop Driven Prion Protein mRNA Translation in H4 Neuroglioblastoma Cells. [Related pubchem assays: 1827 (Project Summary), 1813 (Primary HTS)]; assay type: functional
[11] = molecular target: T3, RNA-binding protein pos-1 (Caenorhabditis elegans, UniProt G5EF15); assay: disruptors of C. elegans POS-1 RNA interaction – biochemical, fluorescence polarization, dose response (AID 1964);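 note: purified POS-1 fused to maltose binding protein made in E. coli; potency of compounds blocking POS-1 binding to fluorescent RNA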
T3 sequence (G5EF15 whole entry): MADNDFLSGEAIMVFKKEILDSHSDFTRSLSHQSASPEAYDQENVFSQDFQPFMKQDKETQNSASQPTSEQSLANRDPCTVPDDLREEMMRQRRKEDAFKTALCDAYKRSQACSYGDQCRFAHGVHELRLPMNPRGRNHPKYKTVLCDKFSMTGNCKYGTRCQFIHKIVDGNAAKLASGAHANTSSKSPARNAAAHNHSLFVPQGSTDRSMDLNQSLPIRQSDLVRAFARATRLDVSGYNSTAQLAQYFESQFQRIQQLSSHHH

[12] = molecular target: T4, Zinc finger protein mex-5 (Caenorhabditis elegans, UniProt Q9XUB2); assay: potency of MEX-5 RNA-binding blockers – biochemical, C. elegans, fluorescence polarization, dose response (AID 1960)
T4 sequence (Q9XUB2 whole entry): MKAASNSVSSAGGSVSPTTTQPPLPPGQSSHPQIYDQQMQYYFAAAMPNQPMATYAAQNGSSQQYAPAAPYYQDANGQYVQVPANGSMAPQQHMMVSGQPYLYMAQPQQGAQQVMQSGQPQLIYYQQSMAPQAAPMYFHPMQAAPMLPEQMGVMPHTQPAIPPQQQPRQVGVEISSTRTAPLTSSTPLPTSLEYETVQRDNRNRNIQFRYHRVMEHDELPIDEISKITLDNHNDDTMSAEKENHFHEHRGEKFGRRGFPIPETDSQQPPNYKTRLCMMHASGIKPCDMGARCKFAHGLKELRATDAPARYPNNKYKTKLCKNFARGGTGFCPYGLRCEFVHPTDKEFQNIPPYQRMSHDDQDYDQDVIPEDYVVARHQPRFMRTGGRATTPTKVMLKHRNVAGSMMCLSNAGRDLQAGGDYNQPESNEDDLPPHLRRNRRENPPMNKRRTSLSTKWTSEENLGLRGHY

[13] = NIH-3T3 fibroblast cytotoxicity, dose response, cytotoxicity control, cell-based, fluorescence, Alamar Blue, secondary assay (AID 2327); assay type: functional;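 note: NIH-3T3 mouse fibroblasts cultured with fluconazole at 8 µg/mL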
[14] = fluconazole-exposed Candida albicans growth modulators – fluorescence, retest, confirmation (AID 2467); assay type: functional, cell-based

Sequence of FAD-linked sulfhydryl oxidase ALR (P55789 whole entry): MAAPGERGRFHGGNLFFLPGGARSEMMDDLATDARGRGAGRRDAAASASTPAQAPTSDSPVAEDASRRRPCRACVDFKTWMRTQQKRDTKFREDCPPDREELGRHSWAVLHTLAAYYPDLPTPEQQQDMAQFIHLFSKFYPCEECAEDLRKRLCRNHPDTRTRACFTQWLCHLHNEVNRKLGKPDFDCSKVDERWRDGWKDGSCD

## COc1ccc(C2C(C(=O)Nc3cc(OC)c(OC)c(OC)c3)c3ccccc3C(=O)N2C)cc1 (stereo unspecified)
BJ [1]
  EC50: 104 µM (inconclusive)
[2]
  EC50: 2.62 µM (active)
BJ [3]
  EC50: 2.43 µM (inconclusive)
BJ [4]
  EC50: 2.56 µM (inconclusive)

## CCc1cccc(NC(=O)CSC2=NS(=O)(=O)c3ccccc32)c1
[5]
  IC50: > 20 µM (inactive)

## COc1ccccc1N1CCN(C(=O)C(CC(C)C)NC(=O)C2CCCCC2)CC1 (stereo unspecified)
[6]
  EC50: > 260 µM (inactive)

## Cc1ccc(S(=O)(=O)Nc2c(C(=O)O)[nH]c3ccccc23)c(C)c1
[7]
  AC50: 12.7 µM (active)

## CCN1CCN(C(=O)c2cc(-c3ccco3)nc3ccccc23)CC1
[5]
  IC50: > 20 µM (inactive)

## O=S(=O)(c1ccc(Oc2ccccc2)cc1)N1CCOCC1
[6]
  EC50: > 260 µM (inactive)

## Cc1ccc(S(=O)(=O)CCc2nnc(NC(=O)CCl)s2)cc1C
BJ [1]
  EC50: 14.7 µM (active)
[2]
  EC50: 10.5 µM (active)
BJ [3]
  EC50: 3.06 µM (active)
BJ [4]
  EC50: > 150 µM (not active)

## Cc1ccc(CNC(=O)Cn2ccc3ccccc3c2=O)o1
[6]
  EC50: > 260 µM (inactive)

## COCCOC(=O)c1[nH]c2c(c1C)C(=O)CC(c1ccccc1)C2 (stereo unspecified)
BJ [1]
  EC50: 4.01 µM (active)
[8]
  EC50: 8.73 µM (inconclusive)
[9]
  EC50: 4.34 µM (active)
[2]
  EC50: 2 µM (active)
BJ [3]
  EC50: 2.62 µM (inconclusive)
[10]
  EC50: 10.6 µM (active)
BJ [4]
  EC50: 1.79 µM (active)

## N#CCC(=O)Nc1ccc(C(=O)NCc2ccccn2)cc1
[7]
  AC50: 2.41 µM (active)

## CC1=C(C(=O)OCc2ccccc2)C(c2ccccc2[N+](=O)[O-])NC(=O)N1C (stereo unspecified)
[11]
  EC50: > 300 µM (not active)
[12]
  EC50: 10.9 µM (active)

## CN1C(=O)c2ccccc2NC(=O)[C@]12O[C@@H]2c1cccc(O)c1
[11]
  EC50: 4.13 µM (active)
[12]
  EC50: 35.1 µM (active)

## CC(C)C[C@@H]1CN=C(N)N1C[C@@H]1CCCN1C[C@H](C)N1C[C@@H](Cc2ccccc2)N(CCc2ccc(Cl)c(Cl)c2)C1=N
[5]
  IC50: > 20 µM (inactive)

## CCOC(=O)N1CCN(C(=O)Cc2ccc(-n3c(=S)[nH]c4ccccc4c3=O)cc2)CC1
[5]
  IC50: > 20 µM (inactive)

## CC1CCCC(NC(=O)CSc2ncnc3ccccc23)C1C (stereo unspecified)
[5]
  IC50: > 20 µM (inactive)

## CC1(C)Cc2ccccc2C(N/N=C/c2ccc([N+](=O)[O-])cc2)=N1
[13]
  EC50: > 150 µM (inactive)
[14]
  EC50: > 38 µM (not active)
